Experiment: xn = mol fraction of the nth substance listed
Conditions: 101 kPa, Liquid; for viscosity: Concentric cylinders viscometry; for mass density: Vibrating tube method

CC(O)CO (stereo not given) [1,2-propanediol] + c1ccncc1
Conditions	mass density [kg/m3]	viscosity [mPa·s]
288.15 K, x2 = 0	1040.08	81.21
288.15 K, x2 = 0.1	1035.59	52.73
288.15 K, x2 = 0.2	1030.94	33
288.15 K, x2 = 0.2999	1026.33	20.08
288.15 K, x2 = 0.4	1021.39	12.08
288.15 K, x2 = 0.4999	1016.46	7.326
288.15 K, x2 = 0.6	1011.23	4.547
288.15 K, x2 = 0.7001	1005.6	3
288.15 K, x2 = 0.8	999.698	1.935
288.15 K, x2 = 0.9	994.093	1.391
293.15 K, x2 = 0	1036.46	58.75
293.15 K, x2 = 0.1	1031.78	38.74
293.15 K, x2 = 0.2	1026.95	24.82
293.15 K, x2 = 0.2999	1022.18	15.55
293.15 K, x2 = 0.4	1017.12	9.643
293.15 K, x2 = 0.4999	1012.06	6.036
293.15 K, x2 = 0.6	1006.71	3.857
293.15 K, x2 = 0.7001	1000.96	2.588
293.15 K, x2 = 0.8	994.925	1.736
293.15 K, x2 = 0.9	989.201	1.274
298.15 K, x2 = 0	1032.8	43.44
298.15 K, x2 = 0.1	1027.92	29.09
298.15 K, x2 = 0.2	1022.93	19.05
298.15 K, x2 = 0.2999	1018.01	12.15
298.15 K, x2 = 0.4	1012.81	7.822
298.15 K, x2 = 0.4999	1007.63	5.021
298.15 K, x2 = 0.6	1002.16	3.31
298.15 K, x2 = 0.7001	996.296	2.292
298.15 K, x2 = 0.8	990.138	1.567
298.15 K, x2 = 0.9	984.298	1.171
303.15 K, x2 = 0	1029.09	32.75
303.15 K, x2 = 0.1	1024.03	22.28
303.15 K, x2 = 0.2	1018.88	14.9
303.15 K, x2 = 0.2999	1013.81	9.81
303.15 K, x2 = 0.4	1008.48	6.396
303.15 K, x2 = 0.4999	1003.18	4.234
303.15 K, x2 = 0.6	997.549	2.866
303.15 K, x2 = 0.7001	991.612	2.008
303.15 K, x2 = 0.8	985.331	1.425
303.15 K, x2 = 0.9	979.376	1.082
308.15 K, x2 = 0	1025.34	25.16
308.15 K, x2 = 0.1	1020.1	17.37
308.15 K, x2 = 0.2	1014.79	11.85
308.15 K, x2 = 0.2999	1009.58	7.981
308.15 K, x2 = 0.4	1004.12	5.363
308.15 K, x2 = 0.4999	998.699	3.638
308.15 K, x2 = 0.6	992.998	2.514
308.15 K, x2 = 0.7001	986.903	1.795
308.15 K, x2 = 0.8	980.506	1.301
308.15 K, x2 = 0.9	974.443	1.002
313.15 K, x2 = 0	1021.55	19.65
313.15 K, x2 = 0.1	1016.14	13.76
313.15 K, x2 = 0.2	1010.67	9.567
313.15 K, x2 = 0.2999	1005.32	6.581
313.15 K, x2 = 0.4	999.722	4.523
313.15 K, x2 = 0.4999	994.186	3.137
313.15 K, x2 = 0.6	988.375	2.218
313.15 K, x2 = 0.7001	982.171	1.613
313.15 K, x2 = 0.8	975.66	1.193
313.15 K, x2 = 0.9	969.488	0.9311
318.15 K, x2 = 0	1017.73	15.58
318.15 K, x2 = 0.1	1012.14	11.07
318.15 K, x2 = 0.2	1006.51	7.833
318.15 K, x2 = 0.2999	1001.02	5.495
318.15 K, x2 = 0.4	995.298	3.855
318.15 K, x2 = 0.4999	989.644	2.729
318.15 K, x2 = 0.6	983.722	1.972
318.15 K, x2 = 0.7001	977.41	1.459
318.15 K, x2 = 0.8	970.792	1.098
318.15 K, x2 = 0.9	964.514	0.8674
323.15 K, x2 = 0	1013.86	12.55
323.15 K, x2 = 0.1	1008.1	9.082
323.15 K, x2 = 0.2	1002.32	6.551
323.15 K, x2 = 0.2999	996.693	4.678
323.15 K, x2 = 0.4	990.839	3.349
323.15 K, x2 = 0.4999	985.073	2.416
323.15 K, x2 = 0.6	979.044	1.786
323.15 K, x2 = 0.7001	972.625	1.341
323.15 K, x2 = 0.8	965.9	1.022
323.15 K, x2 = 0.9	959.522	0.8177

— the NIST ThermoML archive (doi:10.1016/j.jct.2012.06.031)
